From the CheMixHub viscosity set

Test: xn = mol fraction of the nth substance listed

CCCC[n+]1ccn(C)c1.[Cl][Al-]([Cl])([Cl])[Cl] + [Al+3].[Cl-].[Cl-].[Cl-]
viscosity [mPa·s], 101 kPa
Conditions	293.15 K	298.15 K	303.15 K	308.15 K	313.15 K	318.15 K	323.15 K
x2 = 0.46	30.8	27	24.1	21	18.4	16.4	14.8
x2 = 0.57	31.4	27.3	23.7	20.8	18.3	16.4	14.7

COCCOCCOCCO + O=C1CCCN1
298.15 K, 101 kPa
Conditions	viscosity [mPa·s]
x1 = 0.0024	14.16
x1 = 0.0071	13.98
x1 = 0.0099	13.92
x1 = 0.0137	13.86
x1 = 0.026	13.66
x1 = 0.0397	13.43
x1 = 0.0605	13.11
x1 = 0.085	12.74
x1 = 0.1404	12.01
x1 = 0.1689	11.65
x1 = 0.2026	11.29
x1 = 0.24	10.92
x1 = 0.2913	10.46
x1 = 0.3429	10.04
x1 = 0.3916	9.679
x1 = 0.4401	9.334
x1 = 0.4897	9.091
x1 = 0.5674	8.598
x1 = 0.6133	8.347
x1 = 0.6641	8.188
x1 = 0.7172	7.889
x1 = 0.7708	7.642
x1 = 0.8177	7.419
x1 = 0.8659	7.145
x1 = 0.9053	6.89
x1 = 0.9402	6.677
x1 = 0.9788	6.466
x2 = 0.009	6.323

CC(C)(C)O + CS(C)=O
viscosity [mPa·s], 101.3 kPa
Conditions	x2 = 0.095	x2 = 0.1916	x2 = 0.289	x2 = 0.3874	x2 = 0.5132	x2 = 0.5873	x2 = 0.6888	x2 = 0.7916	x2 = 0.8951
298.15 K	3.564	2.968	2.53	2.269	2.07	2.005	1.917	1.902	1.971
303.15 K	2.644	2.111	1.808	1.608	1.479	1.459	1.531	1.568	1.719

COCCOCCOCCO + CCC(C)O
viscosity [mPa·s], 101 kPa
Conditions	x1 = 0.0039	x1 = 0.0079	x1 = 0.0151	x1 = 0.0318	x1 = 0.0511	x1 = 0.08	x1 = 0.1038
298.15 K	3.101	3.074	3.046	2.988	2.947	2.893	2.942
308.15 K	2.163	2.161	2.148	2.133	2.132	2.128	2.186
318.15 K	1.565	1.562	1.564	1.569	1.577	1.611	1.674

NCCN + OCCO
viscosity [mPa·s], 101 kPa
Conditions	x1 = 0.0872	x1 = 0.17	x1 = 0.2572	x1 = 0.3496	x1 = 0.3568	x1 = 0.4448	x1 = 0.547	x1 = 0.6556	x1 = 0.7623	x1 = 0.8792
293.15 K	27.84	34.57	40.29	40.83	–	34.13	21.71	11.54	5.764	2.87
298.15 K	22.44	27.12	31.13	31.21	–	26.03	16.95	9.305	4.829	2.474
303.15 K	18.11	21.75	24.48	24.17	22.85	20.15	–	7.547	4.093	2.165
308.15 K	14.79	17.62	19.51	19.04	–	15.91	10.76	–	3.514	1.914
313.15 K	12.24	14.39	15.71	15.26	–	12.72	8.758	5.248	3.031	1.715
318.15 K	10.22	11.87	12.84	12.3	–	10.35	7.228	4.445	2.644	1.537
323.15 K	8.597	9.828	10.57	10.09	–	8.503	6.053	3.8	2.317	1.383

CC(C)(C)O + CO
303.2 K, 101.33 kPa
Conditions	viscosity [mPa·s]
x2 = 0.05	3.285
x2 = 0.1	3.166
x2 = 0.15	3
x2 = 0.2	2.806
x2 = 0.3	2.4
x2 = 0.4	2.016
x2 = 0.5	1.649
x2 = 0.6	1.36
x2 = 0.7	1.069
x2 = 0.8	0.842
x2 = 0.85	0.746
x2 = 0.9	0.658
x2 = 0.95	0.574
